Measurements from patent US8513301B2, “Kind of piperphentonamine hydrochloride lyophilized powder for injection and preparation and use thereof” (Guangzhou Zhongwei Biotechnology Ltd., priority 2007, dated 2013).
One block for each compound: values may come before it.

Tests used:
[1] = target: T1, cTnC isolated from cattle cardiac muscle (Bos taurus, UniProt P63315); assay: Affinity of Ca^2+ to cTnC by fluorescent probe dansyl chloride labeling; type: binding; conditions: for Influence on the affinity curve of cTnC to Ca^2+: 50 μmol/L; for Effect on the cTnC-Ca^2+ affinity curve: 55 μmol/L (FIG. 4)
T1 construct: cTnC isolated from cattle cardiac muscle; from tissue; host or cells: cattle cardiac muscle
Text: The effect of PPTA-I on the affinity of Ca^2+ to cTnC isolated from cattle cardiac muscle was studied by fluorescent probe dansyl chloride labeling to discuss the calcium sensitization mechanisms of piperphentonamine hydrochloride, and compared the results to the already known calcium sensitizers MCI-154 and sulmazole (Sul).

[2] = test system: cat heart failure model induced by verapamil; assay: Cardiac hemodynamic parameters in cat heart failure model induced by verapamil, intravenous administration; type: in vivo; conditions: 0.1 mg/kg; for +dP/dt max, Change, % / Cardiac contractility, Change % / HR, Change % / LVEDP, Change, % / LVSP, Change, % / MAP, Change % / −dP/dt max, Change, %: vs. baseline
Method: To study the therapeutic effect of the novel cardiotonic and vasodilator PPTA-I on heart failure, the cardiac hemodynamic parameters were determined by a polygraph in cat heart failure model induced by verapamil.

[3] = test system: myocardial ischemia-reperfusion injury in cats; assay: Myocardial ischemia-reperfusion injury in cats in vivo (coronary artery arrest 30 min, reperfusion 60 min); set-up: species or system cat; conditions: 1.3 mg/kg
Method: In order to further evaluate the protective effect of PPTA on myocardium injured by ischemia-reperfusion, a pathological model of myocardial ischemia-reperfusion injury in cats in vivo was established by arrest the coronary artery for 30 min, then reperfusion for 60 min, studying the effects on blood biochemistry, myocardium ultrastructure, etc.

[4] = Solubility and stability of piperphentonamine hydrochloride in water for injection; type: physicochemical
Text: Piperphentonamine hydrochloride with the molecular formula C21H23NO4.HCl has a molecular weight of […], batch No. 2001803, provided by Guangzhou Zhongwei Biotechnology Ltd Company. Its preparation method is described in Chinese patent No. 02125318.8. […] In order to achieve the lyophilized powder for injection with good redissolving ability and stability, piperphentonamine hydrochloride and excipient need to be dissolved in water for injection with pH 1.5 to 5.5 and then lyophilized, especially preferred water for injection with pH 2 to 3.

[5] = conventionally known; cited from earlier work
[6] = treated by sonication and heating

Compound: O=C1CCC(c2ccc(Nc3ccncc3)cc2)=NN1 [MCI-154]
- Influence on the affinity curve of cTnC to Ca^2+ [1]: no significant influence
- Effect on the cTnC-Ca^2+ affinity curve [1]: no significant effect

Compound: Cc1[nH]c(=O)c(C#N)cc1-c1ccncc1 [Milrinone]
- +dP/dt max increased by at most [2]: 61±26%
- Effect on HRs [2]: did not affect
- Effect on LVSP, LVEDP and −dP/dt max [2]: without changing
- MAP decreased by [2]: 10%
- Period of +dP/dt max increase [2]: over 20 minutes
- Period of the effect on MAP and cardiac contractility [2]: 5 min
- +dP/dt max, Change, % ([2]; 2 min): 18 ± 23 %
- Cardiac contractility, Change % ([2]; 2 min): 38 ± 32 # %
- HR, Change % ([2]; 2 min): 0 ± 5%
- LVEDP, Change, % ([2]; 2 min): 1 ± 2%
- LVSP, Change, % ([2]; 2 min): 4 ± 11%
- MAP, Change % ([2]; 2 min): −4 ± 4 %
- −dP/dt max, Change, % ([2]; 2 min): 0 ± 23%
- +dP/dt max, Change, % ([2]; 5 min): 52 ± 24 ### %
- Cardiac contractility, Change % ([2]; 5 min): 92 ± 80 # %
- HR, Change % ([2]; 5 min): 2 ± 15%
- LVEDP, Change, % ([2]; 5 min): 5 ± 16%
- LVSP, Change, % ([2]; 5 min): 5 ± 15%
- MAP, Change % ([2]; 5 min): −10 ± 8 # %
- −dP/dt max, Change, % ([2]; 5 min): 3 ± 19%
- +dP/dt max, Change, % ([2]; 10 min): 61 ± 26 ### %
- Cardiac contractility, Change % ([2]; 10 min): 71 ± 78 %
- HR, Change % ([2]; 10 min): 2 ± 16%
- LVEDP, Change, % ([2]; 10 min): −1 ± 5%
- LVSP, Change, % ([2]; 10 min): 6 ± 17%
- MAP, Change % ([2]; 10 min): −10 ± 6 ## %
- −dP/dt max, Change, % ([2]; 10 min): 11 ± 20%
- +dP/dt max, Change, % ([2]; 15 min): 54 ± 33 ## %
- Cardiac contractility, Change % ([2]; 15 min): 58 ± 74 %
- HR, Change % ([2]; 15 min): 3 ± 16%
- LVEDP, Change, % ([2]; 15 min): −7 ± 16%
- LVSP, Change, % ([2]; 15 min): 3 ± 18%
- MAP, Change % ([2]; 15 min): −10 ± 8 # %
- −dP/dt max, Change, % ([2]; 15 min): 8 ± 23%
- +dP/dt max, Change, % ([2]; 20 min): 61 ± 45 # %
- Cardiac contractility, Change % ([2]; 20 min): 61 ± 69 %
- HR, Change % ([2]; 20 min): −13 ± 37%
- LVEDP, Change, % ([2]; 20 min): 2 ± 11%
- LVSP, Change, % ([2]; 20 min): 4 ± 22%
- MAP, Change % ([2]; 20 min): −8 ± 12%
- −dP/dt max, Change, % ([2]; 20 min): −4 ± 22%

Compound: COc1ccc(CCN(C)CCCC(C#N)(c2ccc(OC)c(OC)c2)C(C)C)cc1OC (stereo not drawn) [verapamil]
- Score of myocardium pathological change ([3]; injury control 2.5 ± 0.55): 1.3 ± 0.18
- Content of cTnI ([3]; serum, injury control 2.3 ± 0.62): 1.4 ± 0.21
- Content of MDA ([3]; serum, injury control 86 ± 17): 65 ± 12 nmol/L
- CPK activity ([3]; serum, injury control 385 ± 75): 271 ± 80

Now from value to compound, other results behind:

- Influence on the affinity curve of cTnC to Ca^2+ [1]: no significant influence
- Effect on the cTnC-Ca^2+ affinity curve [1]: no significant effect
Compound: COc1cc([S+](C)[O-])ccc1-c1nc2ncccc2[nH]1 (stereo not drawn) [Sul, sulmazole]

- Shift of cTnC-Ca^2+ affinity curve to the left compared with the control curve ([1]; 55 μmol/L (FIG. 3)): 0.2 pCa
- Stability in water for injection ([4]; easy to degrade and turn yellow): not stable
- Solubility in water for injection with pH 1.5 to 5.5 [4, 6]: easy to be dissolved
- pH of water for injection with the best solubility and stability [4, 6]: 2 to 3
- Solubility in water for injection ([4]; untreated): difficult to be dissolved
Compound: piperphentonamine hydrochloride
- Shift of cTnC-Ca^2+ affinity curve ([1]; 15 μmol/L): slightly shifted to the left without statistical significance
- Shift of cTnC-Ca^2+ affinity curve ([1]; 35 μmol/L): shifted to the left with statistical significance
- Solubility in water [5]: insoluble or poor soluble in water
